Results from ChEMBL document CHEMBL4376808, “Triphenylphosphonium Analogues of Betulin and Betulinic Acid with Biological Activity: A Comprehensive Review” (J Nat Prod, 2019).

Tests used:
Format in all cases: functional, cell-based
[1] = tested on: HCT-116; assay: Cytotoxic activity in human HCT116 cells assessed as reduction in cell viability
[2] = tested on: MCF7; assay: Cytotoxic activity in human MCF7 cells assessed as reduction in cell viability
[3] = tested on: A549; assay: Cytotoxic activity in human A549 cells assessed as reduction in cell viability

SMILES: C=C(C)[C@@H]1CC[C@]2(C(=O)O)CC[C@]3(C)[C@H](CC[C@@H]4[C@@]5(C)CC[C@H](OC(C)=O)C(C)(C)[C@@H]5CC[C@]43C)[C@@H]12
- IC50 [1]: 9.6 µM

SMILES: C=C(C)[C@@H]1CC[C@]2(C(=O)OCc3cn(-c4ccc(O)c(C)c4)nn3)CC[C@]3(C)[C@H](CC[C@@H]4[C@@]5(C)CCC(=O)C(C)(C)[C@@H]5CC[C@]43C)[C@@H]12
- IC50 [1]: 3.5 µM

SMILES: C=C(C)[C@@H]1CC[C@]2(C(=O)OCc3cn(-c4cccc(C(=O)O)c4)nn3)CC[C@]3(C)[C@H](CC[C@@H]4[C@@]5(C)CCC(=O)C(C)(C)[C@@H]5CC[C@]43C)[C@@H]12
- IC50 [1]: 4 µM

SMILES: C=C(C)[C@@H]1CC[C@]2(C(=O)O)CC[C@]3(C)[C@H](CC[C@@H]4[C@@]5(C)CC[C@H](C#CCN6CCCC6)C(C)(C)[C@@H]5CC[C@]43C)[C@@H]12
- IC50 [2]: 5.5 µM

SMILES: C=C(C)[C@@H]1CC[C@]2(C(=O)OCc3cn(-c4cccc(O)c4)nn3)CC[C@]3(C)[C@H](CC[C@@H]4[C@@]5(C)CCC(=O)C(C)(C)[C@@H]5CC[C@]43C)[C@@H]12
- IC50 [3]: 3.7 µM

SMILES: C=C(C)[C@@H]1CC[C@]2(C(=O)O)CC[C@]3(C)[C@H](CC[C@@H]4[C@@]5(C)CC/C(=N/Nc6ccc([N+](=O)[O-])cc6[N+](=O)[O-])C(C)(C)[C@@H]5CC[C@]43C)[C@@H]12
- IC50 [2]: 8.2 µM

SMILES: C=C(C)[C@@H]1CC[C@]2(C(=O)OCc3cn(-c4ccc5c(c4)OCO5)nn3)CC[C@]3(C)[C@H](CC[C@@H]4[C@@]5(C)CCC(=O)C(C)(C)[C@@H]5CC[C@]43C)[C@@H]12
- IC50 [3]: 5 µM
